Test results taken from ChEMBL document CHEMBL1201862, “PubChem BioAssay data set” (2004).
The source made the active and inactive calls.

Columns and labels:
[1] = biological target: T1, Endoribonuclease toxin MazF (Escherichia coli K-12, UniProt P0AE70); test: substrate-only fluorescence increase artefacts – biochemical, single-stranded RNase substrate, counter-screen for MazEF activator project, dose response (AID 588502); type: functional
T1 sequence (P0AE70 whole entry): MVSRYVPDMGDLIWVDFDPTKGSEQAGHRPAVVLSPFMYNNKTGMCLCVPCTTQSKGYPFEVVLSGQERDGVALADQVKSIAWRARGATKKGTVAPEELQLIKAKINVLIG

[2] = biological target: Bcl-2-like protein 1 (Homo sapiens, UniProt Q07817); test: blockers of BCLXL peptide binding – biochemical, fluorescence polarization, 1536-well, selectivity assay for MCL1 inhibitor project, dose response (AID 2218)
[3] = biological target: Induced myeloid leukemia cell differentiation protein Mcl-1 (Homo sapiens, UniProt Q07820); test: blockers of MCL1 binding to BIM peptide – biochemical, fluorescence polarization, BIM-BH3 peptide, 1536-well, dose response (AID 2217)
[4] = biological target: T1, Endoribonuclease toxin MazF; test: activation of MazEF endoribonuclease cleavage – biochemical, fluorescence, single-stranded RNA substrate, uHTS hits, dose response (AID 588481); type: functional
[5] = biological target: Ion channel NompC (Danio rerio, UniProt Q7T1G6); test: Fluorescence counterscreen assay for TRPML3 agonists: dose response cell-based high-throughput screening assay to identify agonists of the transient receptor potential channel N1 (TRPN1). [Related pubchem assays: 1526, 1424, 1448 ]; type: functional
[6] = viability of HCT116 lacking mutant beta-catenin – cell-based, human colon tumor, dose response (AID 1045); type: functional;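 note: HCT116 colon tumor cells with beta catenin knocked out; cells exposed to compound for 60 hours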
[7] = biological target: Mucolipin-3 (Homo sapiens, UniProt Q8TDD5); test: Dose response cell-based high-throughput screening assay for agonists of the transient receptor potential channel ML3 (TRPML3). [Related pubchem assays: 1526, 1424, 1448 ]; type: functional
[8] = viability of PTEN-deleted HCT116 cells – cell-based, HCT116 PTEN knockout, dose response (AID 1047); type: functional;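 note: HCT116 colon tumor cells with PTEN knocked out; cells exposed to compound for 60 hours before readout; potency for loss of cell viability measured by luminescence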
[9] = system: Escherichia coli; test: microbe, parasite or virus in culture
[10] = A High Throughput Confirmatory Assay used to Identify Novel Compounds that Inhibit Mycobacterium Tuberculosis in the absence of Glycerol.; type: functional
[11] = system: HEK293; test: cells; type: functional, cell-based; conditions: Homo sapiens
[12] = system: HEK293; test: cells; type: functional, cell-based; conditions: Homo sapiens; remark: listed apart in the source
[13] = biological target: T2, Bcl-2-like protein 10 (Homo sapiens, UniProt Q9HD36); test: Concentration-response of Bcl-B inhibitors by biochemical FP with TR3 (AID 1243); type: functional
T2 sequence (Q9HD36 whole entry): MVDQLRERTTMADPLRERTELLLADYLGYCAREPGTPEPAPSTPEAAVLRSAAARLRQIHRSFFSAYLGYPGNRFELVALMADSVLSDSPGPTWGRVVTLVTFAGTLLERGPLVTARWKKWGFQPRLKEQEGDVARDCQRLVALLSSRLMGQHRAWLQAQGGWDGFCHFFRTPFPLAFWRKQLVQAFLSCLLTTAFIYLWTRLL

[14] = system: HEK293; test: NOD2 signaling inhibitors in MDP-stimulated cells, cell-based, uHTS, luminescence (AID 2001); type: functional; conditions: Homo sapiens
[15] = system: HEK293; test: inhibition of NOD1-driven NF-kB reporter – cell-based, luminescence, uHTS, primary screen (AID 1578); type: functional; conditions: Homo sapiens
[16] = cAMP pathway inhibition in counterscreen cell line – TR-FRET cAMP detection, counter-screen for MC4R biased antagonist project, dose response (AID 602305); type: functional, cell-based;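 note: U2OS cells stimulated with forskolin near its EC80 as the cAMP inducer; potency is for inhibition of forskolin-stimulated cAMP signaling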
[17] = biological target: Melanocortin receptor 4 (Homo sapiens, UniProt P32245); test: inhibitors of MC4R cAMP signaling – cell-based, TR-FRET, biased antagonists, dose response (AID 602298); type: functional;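 note: antagonist potency against agonist-stimulated cAMP production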
[18] = biological target: T3, Neuropeptide Y receptor type 1 (Homo sapiens, UniProt P25929); type: functional;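 note: HEK293 cells with a CNG channel challenged with NPY then isoproterenol; potency as antagonist that reverses NPY suppression of cAMP signal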
T3 sequence (P25929 whole entry): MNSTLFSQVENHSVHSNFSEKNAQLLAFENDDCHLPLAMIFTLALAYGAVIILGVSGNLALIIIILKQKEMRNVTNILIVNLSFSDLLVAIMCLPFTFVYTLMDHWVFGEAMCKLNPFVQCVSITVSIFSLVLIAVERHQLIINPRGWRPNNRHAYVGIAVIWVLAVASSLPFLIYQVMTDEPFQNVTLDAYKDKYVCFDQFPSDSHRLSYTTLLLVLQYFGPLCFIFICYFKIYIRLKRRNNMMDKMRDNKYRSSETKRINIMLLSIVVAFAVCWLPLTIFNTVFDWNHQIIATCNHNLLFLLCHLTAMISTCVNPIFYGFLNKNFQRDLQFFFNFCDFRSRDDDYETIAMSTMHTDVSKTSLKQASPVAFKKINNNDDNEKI

[19] = biological target: T4, Neuropeptide Y receptor type 2 (Homo sapiens, UniProt P49146); type: functional, cell-based;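 note: HEK293 cells expressing the receptor and a CNG channel; stimulus was NPY near EC95 followed by isoproterenol to raise cAMP; antagonist potency measured as restoring cAMP signal that NPY suppresses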
T4 sequence (P49146 whole entry): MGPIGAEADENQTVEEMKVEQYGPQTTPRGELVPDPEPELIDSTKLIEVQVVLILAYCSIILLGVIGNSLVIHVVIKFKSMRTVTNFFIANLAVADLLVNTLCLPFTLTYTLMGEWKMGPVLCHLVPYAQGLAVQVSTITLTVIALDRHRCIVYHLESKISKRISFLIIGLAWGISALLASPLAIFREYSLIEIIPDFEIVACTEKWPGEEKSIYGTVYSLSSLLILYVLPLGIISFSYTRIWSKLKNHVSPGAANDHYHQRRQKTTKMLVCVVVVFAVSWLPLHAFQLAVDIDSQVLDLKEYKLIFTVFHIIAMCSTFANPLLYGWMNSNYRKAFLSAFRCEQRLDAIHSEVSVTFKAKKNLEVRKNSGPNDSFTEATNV

[20] = biological target: T5, Estrogen receptor (Homo sapiens, UniProt P03372); test: ERα coactivator recruitment enhancers – biochemical, TR-FRET, ERα LBD, dose response (AID 737)
T5 sequence (P03372 whole entry): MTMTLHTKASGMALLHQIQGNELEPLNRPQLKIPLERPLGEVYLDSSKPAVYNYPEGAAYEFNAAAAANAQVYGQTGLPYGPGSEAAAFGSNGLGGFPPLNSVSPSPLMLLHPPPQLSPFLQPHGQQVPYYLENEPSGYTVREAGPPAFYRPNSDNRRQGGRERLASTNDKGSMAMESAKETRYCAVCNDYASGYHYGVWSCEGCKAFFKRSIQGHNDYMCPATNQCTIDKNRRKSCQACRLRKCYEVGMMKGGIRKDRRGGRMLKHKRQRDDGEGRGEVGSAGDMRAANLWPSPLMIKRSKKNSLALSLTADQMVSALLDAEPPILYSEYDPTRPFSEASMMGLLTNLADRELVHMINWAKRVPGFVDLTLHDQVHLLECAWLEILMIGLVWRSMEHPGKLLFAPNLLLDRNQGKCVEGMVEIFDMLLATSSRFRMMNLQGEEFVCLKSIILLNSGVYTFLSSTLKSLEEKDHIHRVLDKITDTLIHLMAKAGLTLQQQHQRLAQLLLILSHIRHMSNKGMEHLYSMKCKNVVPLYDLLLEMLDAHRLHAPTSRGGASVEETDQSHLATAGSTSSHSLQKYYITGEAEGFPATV

[21] = biological target: T6, Histone-lysine N-methyltransferase NSD2 (Homo sapiens, UniProt O96028); type: biochemical
T6 sequence (O96028 whole entry): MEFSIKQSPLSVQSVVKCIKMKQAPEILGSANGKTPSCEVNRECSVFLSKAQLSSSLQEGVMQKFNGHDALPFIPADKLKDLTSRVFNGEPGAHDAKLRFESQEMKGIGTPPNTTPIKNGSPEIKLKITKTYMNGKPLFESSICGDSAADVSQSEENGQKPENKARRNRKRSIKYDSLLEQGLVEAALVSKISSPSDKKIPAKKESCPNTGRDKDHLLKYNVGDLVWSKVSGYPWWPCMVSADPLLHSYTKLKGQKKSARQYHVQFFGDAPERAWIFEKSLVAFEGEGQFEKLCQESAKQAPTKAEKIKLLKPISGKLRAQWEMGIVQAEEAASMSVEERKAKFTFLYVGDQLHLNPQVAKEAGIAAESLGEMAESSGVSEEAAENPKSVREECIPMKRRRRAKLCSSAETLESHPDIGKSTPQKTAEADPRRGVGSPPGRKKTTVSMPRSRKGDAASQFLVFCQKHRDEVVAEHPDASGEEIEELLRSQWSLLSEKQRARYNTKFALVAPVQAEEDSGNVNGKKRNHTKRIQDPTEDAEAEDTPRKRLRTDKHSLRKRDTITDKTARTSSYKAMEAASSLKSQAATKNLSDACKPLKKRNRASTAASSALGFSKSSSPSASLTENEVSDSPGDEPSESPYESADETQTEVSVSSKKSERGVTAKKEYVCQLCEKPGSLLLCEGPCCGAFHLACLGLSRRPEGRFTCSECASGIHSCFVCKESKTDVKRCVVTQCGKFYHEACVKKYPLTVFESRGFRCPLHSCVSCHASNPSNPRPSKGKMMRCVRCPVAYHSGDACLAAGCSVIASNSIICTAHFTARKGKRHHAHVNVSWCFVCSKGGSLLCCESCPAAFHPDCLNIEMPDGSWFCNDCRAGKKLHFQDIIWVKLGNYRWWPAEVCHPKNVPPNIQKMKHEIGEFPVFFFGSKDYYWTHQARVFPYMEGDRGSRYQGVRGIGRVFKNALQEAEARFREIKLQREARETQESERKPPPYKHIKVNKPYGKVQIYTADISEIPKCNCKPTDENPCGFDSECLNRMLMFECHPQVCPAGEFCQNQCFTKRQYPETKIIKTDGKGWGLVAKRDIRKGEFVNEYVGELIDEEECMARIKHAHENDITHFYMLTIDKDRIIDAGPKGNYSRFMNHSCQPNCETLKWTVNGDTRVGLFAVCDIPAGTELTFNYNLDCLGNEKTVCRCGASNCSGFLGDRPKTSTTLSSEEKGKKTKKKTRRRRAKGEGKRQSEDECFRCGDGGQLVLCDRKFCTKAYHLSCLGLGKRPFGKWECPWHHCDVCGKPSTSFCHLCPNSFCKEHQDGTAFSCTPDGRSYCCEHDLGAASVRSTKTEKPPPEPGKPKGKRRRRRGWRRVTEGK

[22] = biological target: T7, Mannose-6-phosphate isomerase (Homo sapiens, UniProt P34949); test: MPI inhibition at elevated mannose 6-phosphate – biochemical, fluorescence intensity, high mannose 6-phosphate, primary screen (AID 1220)
T7 sequence (P34949 whole entry): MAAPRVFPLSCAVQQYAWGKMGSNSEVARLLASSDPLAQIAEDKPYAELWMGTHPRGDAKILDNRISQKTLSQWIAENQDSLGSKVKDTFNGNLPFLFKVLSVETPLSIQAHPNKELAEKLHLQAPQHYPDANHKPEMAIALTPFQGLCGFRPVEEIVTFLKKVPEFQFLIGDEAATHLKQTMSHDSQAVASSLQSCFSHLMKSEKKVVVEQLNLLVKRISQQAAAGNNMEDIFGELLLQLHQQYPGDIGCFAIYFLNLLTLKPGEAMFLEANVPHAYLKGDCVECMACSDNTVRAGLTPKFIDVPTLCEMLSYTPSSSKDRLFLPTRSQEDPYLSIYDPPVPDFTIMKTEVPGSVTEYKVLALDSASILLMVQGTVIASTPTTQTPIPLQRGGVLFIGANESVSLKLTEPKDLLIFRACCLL

[23] = biological target: T7, Mannose-6-phosphate isomerase; test: MPI enzyme activity inhibition – biochemical, fluorescence intensity, coupled assay, primary screen (AID 1209)
[24] = biological target: NADPH oxidase 1 (Homo sapiens, UniProt Q9Y5S8); type: functional, cell-based;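 note: Cell-based assay with luminescence read-out, IC50 derived from inhibitor dose-response curves; intracellular ROS from endogenous NOX1 in intact HT29 colon cancer cells; potency of inhibitors that lower the ROS luminescence signal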
[25] = cells; type: functional, cell-based
[26] = cells; type: functional, cell-based; remark: listed apart in the source
[27] = biological target: Nonstructural protein 1 (Influenza A virus, UniProt Q194T2); type: functional, Influenza A virus (A/California/07/2009(H1N1))
[28] = mitochondrial function rescue without frataxin homolog – Friedreich's ataxia, plus single-dose screen, dose response (AID 1465); type: functional;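 note: yeast depleted of Yfh1p frataxin homolog grown on glycerol needing respiration; WST-1 tetrazolium dye reduction as measure of cellular dehydrogenase metabolic activity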

Bcl-2-like protein 1, sequence (Q07817 whole entry): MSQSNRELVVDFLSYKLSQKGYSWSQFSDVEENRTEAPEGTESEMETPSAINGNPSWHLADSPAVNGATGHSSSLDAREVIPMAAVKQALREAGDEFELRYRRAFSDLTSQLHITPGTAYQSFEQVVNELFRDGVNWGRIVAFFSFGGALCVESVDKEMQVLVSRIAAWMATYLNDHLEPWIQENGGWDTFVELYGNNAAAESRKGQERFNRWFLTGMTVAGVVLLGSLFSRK
Induced myeloid leukemia cell differentiation protein Mcl-1, sequence (Q07820 whole entry): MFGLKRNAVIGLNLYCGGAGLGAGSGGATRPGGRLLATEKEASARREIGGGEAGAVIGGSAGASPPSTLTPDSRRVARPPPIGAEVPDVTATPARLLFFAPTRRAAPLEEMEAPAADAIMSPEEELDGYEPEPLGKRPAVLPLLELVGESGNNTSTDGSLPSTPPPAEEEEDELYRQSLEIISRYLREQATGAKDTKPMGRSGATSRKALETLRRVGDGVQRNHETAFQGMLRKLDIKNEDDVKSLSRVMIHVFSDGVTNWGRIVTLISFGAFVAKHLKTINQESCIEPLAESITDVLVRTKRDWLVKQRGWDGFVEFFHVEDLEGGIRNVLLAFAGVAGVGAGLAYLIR
Melanocortin receptor 4, sequence (P32245 whole entry): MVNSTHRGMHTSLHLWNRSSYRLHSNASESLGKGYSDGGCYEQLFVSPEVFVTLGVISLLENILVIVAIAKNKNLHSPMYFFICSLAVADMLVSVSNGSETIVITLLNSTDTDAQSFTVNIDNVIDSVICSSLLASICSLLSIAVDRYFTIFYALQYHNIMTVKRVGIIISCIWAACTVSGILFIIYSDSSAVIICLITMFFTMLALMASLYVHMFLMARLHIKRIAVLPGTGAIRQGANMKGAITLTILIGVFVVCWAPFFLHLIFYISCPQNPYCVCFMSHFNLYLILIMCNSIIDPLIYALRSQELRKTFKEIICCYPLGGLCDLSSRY
Nonstructural protein 1, sequence (Q194T2 whole entry): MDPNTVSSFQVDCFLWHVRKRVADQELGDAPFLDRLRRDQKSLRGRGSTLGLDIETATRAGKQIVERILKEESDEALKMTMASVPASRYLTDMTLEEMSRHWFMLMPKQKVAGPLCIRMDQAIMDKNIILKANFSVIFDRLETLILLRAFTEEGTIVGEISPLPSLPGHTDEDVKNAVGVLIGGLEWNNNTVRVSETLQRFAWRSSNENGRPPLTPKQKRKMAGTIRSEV
NADPH oxidase 1, sequence (Q9Y5S8 whole entry): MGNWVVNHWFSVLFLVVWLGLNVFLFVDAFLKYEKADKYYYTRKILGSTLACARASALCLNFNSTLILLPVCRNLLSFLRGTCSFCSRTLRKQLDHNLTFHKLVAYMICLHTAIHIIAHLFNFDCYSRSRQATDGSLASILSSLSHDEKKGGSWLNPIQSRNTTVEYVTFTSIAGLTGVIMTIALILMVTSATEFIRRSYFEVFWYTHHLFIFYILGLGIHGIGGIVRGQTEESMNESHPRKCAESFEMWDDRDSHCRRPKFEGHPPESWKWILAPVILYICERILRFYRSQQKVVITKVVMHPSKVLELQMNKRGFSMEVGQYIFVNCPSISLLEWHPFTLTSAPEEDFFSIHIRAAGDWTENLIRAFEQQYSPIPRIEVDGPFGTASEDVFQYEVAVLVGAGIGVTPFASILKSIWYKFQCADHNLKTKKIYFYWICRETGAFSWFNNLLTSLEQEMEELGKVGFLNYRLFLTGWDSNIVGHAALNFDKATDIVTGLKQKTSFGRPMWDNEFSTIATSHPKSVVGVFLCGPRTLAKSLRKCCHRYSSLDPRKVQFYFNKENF
Mucolipin-3, sequence (Q8TDD5 whole entry): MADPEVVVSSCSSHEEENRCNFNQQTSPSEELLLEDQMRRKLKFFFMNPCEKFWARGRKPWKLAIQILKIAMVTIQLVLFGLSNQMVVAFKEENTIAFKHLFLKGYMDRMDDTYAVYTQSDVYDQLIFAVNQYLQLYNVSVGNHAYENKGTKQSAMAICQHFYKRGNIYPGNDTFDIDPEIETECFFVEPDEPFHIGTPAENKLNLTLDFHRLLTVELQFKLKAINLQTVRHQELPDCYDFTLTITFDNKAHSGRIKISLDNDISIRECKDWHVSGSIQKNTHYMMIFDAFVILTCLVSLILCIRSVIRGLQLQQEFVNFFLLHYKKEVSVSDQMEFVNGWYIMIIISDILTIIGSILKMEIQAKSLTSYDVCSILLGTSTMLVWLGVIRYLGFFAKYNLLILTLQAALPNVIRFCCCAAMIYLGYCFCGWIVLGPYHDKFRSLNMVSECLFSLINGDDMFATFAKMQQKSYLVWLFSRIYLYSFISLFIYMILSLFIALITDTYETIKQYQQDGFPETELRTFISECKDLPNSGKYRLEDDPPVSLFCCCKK
Ion channel NompC, sequence (Q7T1G6 whole entry): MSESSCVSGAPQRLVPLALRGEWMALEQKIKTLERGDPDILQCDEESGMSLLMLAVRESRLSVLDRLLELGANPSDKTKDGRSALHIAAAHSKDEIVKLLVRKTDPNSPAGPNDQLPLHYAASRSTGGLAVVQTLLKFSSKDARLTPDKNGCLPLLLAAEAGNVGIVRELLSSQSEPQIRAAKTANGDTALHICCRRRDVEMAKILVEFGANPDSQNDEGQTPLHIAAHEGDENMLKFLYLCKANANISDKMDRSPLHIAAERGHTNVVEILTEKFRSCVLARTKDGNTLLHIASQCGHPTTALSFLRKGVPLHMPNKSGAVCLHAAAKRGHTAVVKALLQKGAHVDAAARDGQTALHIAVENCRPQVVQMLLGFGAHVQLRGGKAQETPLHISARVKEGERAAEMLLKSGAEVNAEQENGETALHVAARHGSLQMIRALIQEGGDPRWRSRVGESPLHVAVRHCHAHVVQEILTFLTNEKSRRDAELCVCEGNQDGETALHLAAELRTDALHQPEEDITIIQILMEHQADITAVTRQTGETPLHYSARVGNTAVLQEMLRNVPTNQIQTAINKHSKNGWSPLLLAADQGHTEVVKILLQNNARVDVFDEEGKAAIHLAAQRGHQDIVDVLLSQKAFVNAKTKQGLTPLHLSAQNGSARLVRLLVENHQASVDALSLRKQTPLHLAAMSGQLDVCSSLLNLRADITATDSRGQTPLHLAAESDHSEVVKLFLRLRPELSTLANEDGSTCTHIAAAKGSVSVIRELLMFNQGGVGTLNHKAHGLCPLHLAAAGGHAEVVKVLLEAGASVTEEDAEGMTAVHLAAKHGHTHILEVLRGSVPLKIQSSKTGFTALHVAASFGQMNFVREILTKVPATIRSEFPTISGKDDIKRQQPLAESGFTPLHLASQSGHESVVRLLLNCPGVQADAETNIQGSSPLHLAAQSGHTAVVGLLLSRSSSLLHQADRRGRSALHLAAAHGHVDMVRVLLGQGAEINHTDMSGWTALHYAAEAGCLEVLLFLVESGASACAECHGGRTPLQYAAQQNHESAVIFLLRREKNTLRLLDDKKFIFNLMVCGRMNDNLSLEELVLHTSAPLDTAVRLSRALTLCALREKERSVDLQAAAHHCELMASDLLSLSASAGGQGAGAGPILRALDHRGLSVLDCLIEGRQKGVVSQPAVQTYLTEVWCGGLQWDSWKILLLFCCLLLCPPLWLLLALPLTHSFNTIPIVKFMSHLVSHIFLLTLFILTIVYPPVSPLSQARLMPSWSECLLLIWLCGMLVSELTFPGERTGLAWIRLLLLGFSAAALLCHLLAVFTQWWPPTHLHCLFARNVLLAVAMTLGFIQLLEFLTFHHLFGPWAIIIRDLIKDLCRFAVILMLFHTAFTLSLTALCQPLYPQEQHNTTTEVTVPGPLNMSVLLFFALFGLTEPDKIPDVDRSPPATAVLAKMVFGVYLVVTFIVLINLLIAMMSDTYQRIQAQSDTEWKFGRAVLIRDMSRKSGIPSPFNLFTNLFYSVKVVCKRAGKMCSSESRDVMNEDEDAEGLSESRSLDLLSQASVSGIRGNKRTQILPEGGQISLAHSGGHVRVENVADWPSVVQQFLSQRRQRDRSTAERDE

## O=C(Oc1ccc2c(c1)O/C(=C\c1ccncc1)C2=O)c1ccccc1
[1]
  EC50: 48 µM (inactive)
[2]
  IC50: 15.5 µM (not active)
[3]
  IC50: 11.7 µM (not active)
[4]
  EC50: > 99 µM (inactive)

## CC(c1ccccc1)N(NC(=O)C(O)(c1ccccc1)c1ccccc1)C(=O)c1ccccc1 (stereo not drawn)
[5]
  EC50: > 29.9 µM (not active)
[6]
  EC50: 11.3 µM (active)
[7]
  EC50: > 29.9 µM (not active)
[8]
  EC50: 13.9 µM (active)

## O=C1c2ccccc2CC1Sc1nnc(-c2ccncc2)o1 (stereo not drawn)
[9]
  AC50: 268 µM (active)
[10]
  IC50: > 100 µM (active)

## Nc1[nH]nc2ncc3cc4ccccc4nc3c12
[11]
  IC50: > 20 µM (inactive)
[12]
  IC50: 7.35 µM (active)
[13]
  EC50: 3.74 µM (active)
[14]
  IC50: 8.23 µM (active)
[15]
  EC50: 11.9 µM (active)

## COC(=O)C1=C(C(=O)OC)SC2(S1)C(C(=O)OC)=C(C(=O)OC)SC1=C2c2cccc(C)c2NC1(C)C
[16]
  IC50: > 64.6 µM (inactive)
[17]
  IC50: 3.83 µM (active)
[18]
  IC50: > 35 µM (not active)
[19]
  IC50: > 35 µM (not active)

## CSc1nnc2c(n1)OC(c1ccsc1)N(C(C)=O)c1ccccc1-2 (stereo not drawn)
[20]
  EC50: 22.6 µM (not active)

## CN1c2cccc3cccc(c23)N(C)C1(C)C
[21]
  AC50: 11.4 µM (active)
[22]
  IC50: > 50 µM (not active)
[23]
  IC50: > 50 µM (not active)

## Ic1ccc(-c2nc(-c3ccccc3)c(-c3ccccc3)[nH]2)cc1
[24]
  IC50: > 17 µM (not active)

## COc1ccc(O)c(/C=N/NC(=S)Nc2cccc(S(=O)(=O)N(C)C)c2)c1
[25]
  EC50: 10.8 µM (active)
[26]
  EC50: > 350 µM (not active)
[27]
  IC50: 8.98 µM (active)
[28]
  EC50: > 100 µM (active)
